EP3822285A1, “VARIANT NISIN PEPTIDES” (University College Cork-National University of Ireland, Cork, priority 2019, dated 2021)
In brackets after ≈: the same amount, converted by molar mass. Several values for one entry are separate records, joined by “and”; a condition that tells them apart may be missing. Equal values may be shown once. Marks after values point to notes of the source that are not given here.

How the values were obtained:
Type in all cases: cell-based
[1] = tested on: Thermus scotoductus SE-1; test: Agar diffusion assay with cell free supernatant of producing strains; conditions: zone diameter relative to Nisin A wild type (100)
Outline: (§1)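 Cell-free supernatant (50 µl) from overnight nisin A or variant-producing L. lactis cultures placed in wells of Castenholz agar seeded with indicator strain. Plates incubated 55°C for 3 days; zone of clearance measured, reflecting combined peptide yield and specific activity; triplicate.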

[2] = tested on: Thermus thermophilus HB27; test: as above; conditions: zone diameter relative to Nisin A wild type (100)
Outline: as §1

[3] = tested on: S. aureus RF122; test: Deferred antagonism assay; conditions: producing strain
Protocol: (§2) Mutagenesis of the nisA gene was carried out as described previously (Field et al., 2008). Briefly, saturation mutagenesis was carried out using pDF05 (pCI372-nisA) as template and using oligonucleotides containing an NNK codon in place of each native codon. PCR amplification was performed in a 50 µl reaction containing approximately 0.5 ng of target DNA (pDF05), 1 unit Phusion High-Fidelity DNA polymerase (Finnzymes, Finland), 1 mM dNTPs and 500 ng each of the appropriate forward and reverse oligonucleotide. The reaction was pre-heated at 98°C for 2 min, and then incubated for 29 cycles at 98°C for 30 s, 55°C for 15 s and 72°C for 3 min 30 s, and then finished by incubating at 72°C for 3 min 30 s. Amplified products were treated with Dpn1 (Stratagene) for 60 min at 37°C to digest template DNA and purified using the QIAquick PCR purification kit. Following transformation of E. coli Top 10 cells plasmid DNA was isolated and sequenced using primers pCI372FOR (5' […] 3') and pCI372REV (5' […] 3') to verify that mutagenesis had taken place. Approximately 150 transformants were chosen at random for each position and inoculated into 96-well plates containing GM17 chloramphenicol, incubated overnight and stored at -20°C after addition of 80% glycerol. Deferred antagonism assays were performed by replicating strains on GM17 agar plates and allowing them to grow overnight before overlaying with BHI agar (0.75% w/v agar) seeded with the appropriate indicator strain.
(§3) Previously, site-saturation mutagenesis-based strategies were used to generate strains producing bioengineered nisin derivatives in which all residues not involved in lanthionine ring formation (i.e. I1, T2, 14, S5, L6, P9, G10, K12, G14, A15, L16, M17, G18, N20, M21, K22, A24, H27, S29 130, H31, V32, S33 and K34) were each randomised to potentially all other natural amino acids, or whereby all three residues of the hinge-region (NMK) were randomised simultaneously (Rouse et al., 2012, Healy et al., 2013, Field et al., 2008). […] From this screen 76 variants of interest from the first round of screening were incorporated into a "mini-bank" for subsequent further analysis. The number of indicator strains was increased from five to thirteen to include S. uberis 43382, S. uberis DPC5344, S. dysgalactiae ATCC43078, L. lactis 303, L. cremoris KH, Lactobacillus bulgaricus NCDO2489, Lb. helveticus 2079 and Lb. acidophilus ATCC4356 (Table 1). Following this second round of screening, 6 variants of interest were deemed worthy of closer inspection. DNA sequencing of the mutated nisin gene as well as mass spectrometric analysis of the peptide produced by each strain established that these corresponded to nisin M17Q (methionine at position 17 altered to glutamine), nisin T2L (threonine 2 leucine) nisin HTK, VGA, VGV or VGT (where the hinge residues Asn-Met-Lys have been altered to His-Thr-Lys, Val-Gly-Ala, Val-Gly-Val or Val-Gly-Thr respectively). […] As a result, these derivatives were eliminated from this study, but will be the subject of further investigation as potential anti-mastitis antimicrobials. […] In the case of the derivatives nisin T2L and nisin HTK, the activity appeared reduced and equivalent to nisin A respectively (Figure 1), while improved activity was observed by both derivatives against S. agalactiae ATCC13813 and S. aureus RF122 (Table 2). On this basis, the nisin derivatives M17Q, T2L and HTK were selected for purification and specific activity assays. Purified peptides were subjected to Mass Spectrometry to confirm the correct mass in each case. In the case of T2L and HTK derivatives, the threonine remained in the unmodified form (data not shown).

[4] = tested on: L. lactis HP; test: Deferred antagonism assay; conditions: producing strain
Protocol: as §2, §3

[5] = tested on: L. lactis MG1363; test: Deferred antagonism assay; conditions: producing strain
Protocol: as §2, §3

[6] = tested on: S. agalactiae ATCC13813; test: Deferred antagonism assay; conditions: producing strain
Protocol: as §2, §3

[7] = tested on: T. thermophilus HB27; test: Minimum inhibitory concentration assay (Thermus); conditions: pure peptide, mean of triplicate assays
Outline: (§4)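 Purified, MALDI-TOF-confirmed nisin peptides tested in triplicate; wells pre-coated with 1% BSA then PBS-washed; Castenholz medium; ∼10^5 cfu/ml final; 55°C, 3 d; MIC = lowest conc. without visible growth.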

[8] = tested on: T. scotoductus SE-1; test: Minimum inhibitory concentration assay (Thermus); conditions: pure peptide, mean of triplicate assays
Outline: as §4

[9] = tested on: T. aquaticus; test: Minimum inhibitory concentration assay (Thermus); conditions: pure peptide, mean of triplicate assays
Outline: as §4

[10] = tested on: T. brockianus; test: Minimum inhibitory concentration assay (Thermus); conditions: pure peptide, mean of triplicate assays
Outline: as §4

[11] = tested on: T. rehai; test: Minimum inhibitory concentration assay (Thermus); conditions: pure peptide, mean of triplicate assays
Outline: as §4

[12] = tested on: T. oshimai; test: Minimum inhibitory concentration assay (Thermus); conditions: pure peptide, mean of triplicate assays
Outline: as §4

[13] = tested on: S. aureus strains; test: Minimum inhibitory concentration assay, panel of S. aureus strains; conditions: panel of 12 S. aureus isolates; compared to nisin A
Protocol: (§5) Minimum inhibitory concentration determinations were carried out in triplicate in 96 well microtitre plates. 96 well microtitre plates were pre-treated with bovine serum albumin (BSA) prior to addition of the peptides. Briefly, to each well of the microtitre plate 200 µL of phosphate buffered saline (PBS) containing 1% (w/v) bovine serum albumin (PBS/BSA) was added and incubated at 37°C for 30 min. The wells were washed with 200 µL PBS and allowed to dry. Target strains were grown overnight in the appropriate conditions and medium, subcultured into fresh broth and allowed to grow to an OD600 of ∼0.5, diluted to a final concentration of 10^5 cfu ml^-1 in a volume of 0.2 ml. The lyophilised peptides were resuspended in the appropriate media to a stock concentration of 30 µM. Wild type nisin and nisin mutant peptides were adjusted to a 7.5 or 5.0 µM or 500 nM starting concentration and 2-fold serial dilutions of each peptide were made in 96 well plates for a total of 12 dilutions.
(§6) To confirm that the observed enhanced activity of the nisin variants was due to increased specific activity, the activity of purified peptides were assessed using classical broth-based minimum inhibitory concentration (MIC) determination assays. […] Also included were the lactic acid bacteria targets L. lactis MG1363, L. lactis spp. lactis HP, B. longum UCC44b and Lb acidophilus ATCC 4356.

[14] = tested on: S. aureus ST534(MRSA); test: Minimum inhibitory concentration assay
Protocol: as §5, §6

[15] = tested on: S. aureus DPC 5247; test: Minimum inhibitory concentration assay; conditions: purified peptide
Protocol: as §5, §6

[16] = tested on: S. aureus ST528(MRSA); test: Minimum inhibitory concentration assay
Protocol: as §5, §6

[17] = tested on: S. aureus 5971; test: Minimum inhibitory concentration assay
Protocol: as §5, §6

[18] = tested on: S. aureus DPC 5245; test: Minimum inhibitory concentration assay; conditions: purified peptide
Protocol: as §5, §6

[19] = tested on: S. aureus 272; test: Minimum inhibitory concentration assay
Protocol: as §5, §6

[20] = tested on: L. lactis HP; test: Minimum inhibitory concentration assay
Protocol: as §5, §6

[21] = tested on: S. aureus DPC 5243; test: Minimum inhibitory concentration assay; conditions: purified peptide
Protocol: as §5, §6

[22] = tested on: S. aureus 513; test: Minimum inhibitory concentration assay; conditions: purified peptide
Protocol: as §5, §6

[23] = tested on: B. longum UCC 44b
Protocol: as §5, §6

[24] = tested on: Lb. acidophilus ATCC 4356
Protocol: as §5, §6

Q: Which “% of wild type” value [1] does the source give for `C=C(NC(=O)[C@@H](NC(=O)[C@H](Cc1c[nH]cn1)NC(=O)[C@@H](NC(=O)[C@H](CO)NC(=O)[C@@H]1CS[C@@H](C)[C@H]2NC(=O)[C@H](C)NC(=O)[C@H](NC(=O)[C@H](C)NC(=O)CNC(=O)[C@@H](NC(=O)[C@@H]3CS[C@@H](C)[C@@H](NC(=O)[C@H](CCCCN)NC(=O)[C@@H]4CS[C@@H](C)[C@@H](NC(=O)[C@@H]5CSC[C@@H](NC(=O)/C(=C/C)NC(=O)[C@@H](N)[C@@H](C)CC)C(=O)N[C@@H]([C@@H](C)CC)C(=O)NC(=C)C(=O)N[C@@H](CC(C)C)C(=O)N5)C(=O)N5CCC[C@H]5C(=O)NCC(=O)N4)C(=O)NCC(=O)N[C@@H](C)C(=O)N[C@@H](CC(C)C)C(=O)N[C@@H](CCSC)C(=O)NCC(=O)N3)C(C)C)[C@H](C)SC[C@H](NC2=O)C(=O)N[C@@H](Cc2c[nH]cn2)C(=O)N1)[C@@H](C)CC)C(C)C)C(=O)N[C@@H](CCCCN)C(=O)O` [VGA, nisin VGA] here?
A: 127* (0.022) %

Q: What about the “% difference” value [2] of the same molecule?
A: 169* (0.0002) %

Q: What about the “zone of inhibition (area of the zone of inhibition minus the area of the spot)” value [3] of the same molecule?
A: 138.17 ± 8.12 mm2

Q: And the “zone of inhibition (area of the zone of inhibition minus the area of the spot)” value [4]?
A: 362.16 ± 6.77 mm2

Q: What about the “zone of inhibition (area of the zone of inhibition minus the area of the spot)” value [5] of the same molecule?
A: 230.92 ± 4.04 mm2

Q: And the “zone of inhibition (area of the zone of inhibition minus the area of the spot)” value [6]?
A: 234.96 ± 25.45 mm2

Q: What about the MIC [7] of the same molecule?
A: 0.0312 µM (≈ 0.1 µg/mL)

Q: And the MIC [8]?
A: 0.125 µM (≈ 0.401 µg/mL)

Q: What about the MIC [9] of the same molecule?
A: 0.0156 µM (≈ 0.05 µg/mL)

Q: And the MIC [10]?
A: 0.125 µM (≈ 0.401 µg/mL)

Q: And the MIC [11]?
A: 0.125 µM (≈ 0.401 µg/mL)

Q: What about the MIC [12] of the same molecule?
A: 0.0156 µM (≈ 0.05 µg/mL)

Q: How did the “zone of inhibition (area of the zone of inhibition minus the area of the spot)” value [3] turn out when `C=C(NC(=O)[C@@H](NC(=O)[C@H](Cc1c[nH]cn1)NC(=O)[C@@H](NC(=O)[C@H](CO)NC(=O)[C@@H]1CS[C@@H](C)[C@H]2NC(=O)[C@H](C)NC(=O)[C@H](NC(=O)[C@H](CCCCN)NC(=O)[C@H](CCSC)NC(=O)[C@H](CC(N)=O)NC(=O)[C@@H]3CS[C@@H](C)[C@@H](NC(=O)[C@H](CCCCN)NC(=O)[C@@H]4CS[C@@H](C)[C@@H](NC(=O)[C@@H]5CSC[C@@H](NC(=O)[C@H](CC(C)C)NC(=O)[C@@H](N)[C@@H](C)CC)C(=O)N[C@@H]([C@@H](C)CC)C(=O)NC(=C)C(=O)N[C@@H](CC(C)C)C(=O)N5)C(=O)N5CCC[C@H]5C(=O)NCC(=O)N4)C(=O)NCC(=O)N[C@@H](C)C(=O)N[C@@H](CC(C)C)C(=O)N[C@@H](CCSC)C(=O)NCC(=O)N3)[C@H](C)SC[C@H](NC2=O)C(=O)N[C@@H](Cc2c[nH]cn2)C(=O)N1)[C@@H](C)CC)C(C)C)C(=O)N[C@@H](CCCCN)C(=O)O` [T2L, nisin T2L] was run?
A: 100.05 ± 14.96 mm2

Q: And the “zone of inhibition (area of the zone of inhibition minus the area of the spot)” value [4]?
A: 134.12 ± 19.00 mm2

Q: And the “zone of inhibition (area of the zone of inhibition minus the area of the spot)” value [5]?
A: 80.11 ± 12.18 mm2

Q: What about the “zone of inhibition (area of the zone of inhibition minus the area of the spot)” value [6] of the same molecule?
A: 194.44 ± 6.22 mm2

Q: And the “number of S. aureus strains with enhanced specific activity” value [13]?
A: 9

Q: And the fold enhanced activity ([14]; S. aureus ST 534 (MRSA), compared to nisin A)?
A: 4 fold

Q: What about the “Specific activity (MIC)” value ([14]; S. aureus ST534(MRSA), purified peptide) of the same molecule?
A: 0.25 Mg/L and 0.078 µM

Q: And the “Specific activity (MIC)” value [15]?
A: 0.5 Mg/L and 0.156 µM

Q: What about the fold enhanced activity ([16]; S. aureus ST528 (MRSA), compared to nisin A) of the same molecule?
A: 4 fold

Q: And the “Specific activity (MIC)” value ([16]; S. aureus ST528(MRSA), purified peptide)?
A: 0.125 Mg/L and 0.039 µM

Q: What about the fold improved activity ([17]; compared to nisin A) of the same molecule?
A: 16 fold

Q: And the “Specific activity (MIC)” value ([17]; purified peptide)?
A: 1.5 Mg/L and 0.468 µM

Q: What about the “Specific activity (MIC)” value [18] of the same molecule?
A: 0.5 Mg/L and 0.156 µM

Q: What about the fold enhanced activity ([19]; compared to nisin A) of the same molecule?
A: 4 fold

Q: And the “Specific activity (MIC)” value ([19]; purified peptide)?
A: 0.75 Mg/L and 0.234 µM

Q: What about the “fold reduction in potency” value ([20]; compared to wild-type nisin A) of the same molecule?
A: 2 fold

Q: And the “Specific activity (MIC)” value ([20]; purified peptide)?
A: 0.4 Mg/L and 0.125 µM

Q: And the “Specific activity (MIC)” value [21]?
A: 0.5 Mg/L and 0.156 µM

Q: And the “Specific activity (MIC)” value [22]?
A: 3 Mg/L and 0.937 µM

Q: What about the “fold decreased activity compared to wild type peptide” value [23] of the same molecule?
A: 2 fold

Q: And the “fold reduction in specific activity compared to wild type nisin A” value [24]?
A: 4 fold

Q: And the “Specific activity (MIC)” value ([24]; purified peptide)?
A: 0.12 Mg/L and 0.044 µM
